Laboratory results as given in patent publication EP4603105A1, “PHARMACEUTICAL COMPOSITION CONTAINING CYCLIC COMPOUND HAVING SELECTIVE KRAS INHIBITORY EFFECT AGAINST HRAS AND NRAS” (CHUGAI SEIYAKU KABUSHIKI KAISHA, priority 2022, dated 2024).
Where a SMILES comes first, the peptide text is derived from it. Bridges are numbered along the chain shown (N, C = ends). [ ]: non-standard residue; d: D form. The star is where a group is joined. hPhe(3-Cl-4-CF3) = N[C@@H](CCc1ccc(C(F)(F)F)c(Cl)c1)C(=O)O; NPrPhe(4-CF3) = CCCN[C@@H](Cc1ccc(C(F)(F)F)cc1)C(=O)O; NEtPhe(4-CF3) = CCN[C@@H](Cc1ccc(C(F)(F)F)cc1)C(=O)O; 3Oxa8azabicyclo(3.2.1)octane = C1CC2COCC1N2*; NMePhe(4-F) = CN[C@@H](Cc1ccc(F)cc1)C(=O)O; NMeGly(cPent) = CN[C@H](C(=O)O)C1CCCC1; Pro(4,4-F2) = O=C(O)[C@@H]1CC(F)(F)CN1; NMeD = CN[C@@H](CC(=O)O)C(=O)O; NMeL = CN[C@@H](CC(C)C)C(=O)O; Ac6c = NC1(C(=O)O)CCCCC1; Morpholide = C1CN(*)CCO1; NMeA = CN[C@@H](C)C(=O)O; Ac5c = NC1(C(=O)O)CCCC1; Aze = O=C(O)[C@@H]1CCN1; Ac4c = NC1(C(=O)O)CCC1; NEtG = CCNCC(=O)O; Sar = CNCC(=O)O

Experiments:
[1] = molecular target: GDP-bound NRAS wild-type protein (Homo sapiens, UniProt P01111); assay: Binding to NRAS by surface plasmon resonance (SPR), KD and KD ratio to KRAS
Procedure, shortened: (§1)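 Measured at 30°C: SPR with GDP-loaded, E. coli-expressed biotin-Avi RAS captured (~100–300 RU), ascending 75 s compound injections, HBS pH 7.4 with GDP, MgCl2, 4% DMSO. KD from 1:1 fit.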

HRAS wild-type protein = HRAS wild-type protein (Homo sapiens, UniProt P01112); assay: Binding to HRAS by surface plasmon resonance (SPR), KD and KD ratio to KRAS
Procedure, shortened: as §1

[2] = tested on: human lung cancer strain NCI-H441; type: cell-based
Procedure, shortened: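 Signal came from […] measured per well once the reagent was added. Beforehand, cells were cultured at 37°C and 5% carbon dioxide on a compound series serially diluted in dimethyl sulfoxide.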

[3] = ratio of KD for GDP-bound NRAS wild-type protein to KD for KRAS
[4] = ratio of KD for HRAS wild-type protein to KD for KRAS
[5] = ratio of the KD value with respect to GDP-bound NRAS wild-type protein to the KD value with respect to KRAS
[6] = ratio of the KD value with respect to HRAS wild-type protein to the KD value with respect to KRAS
[7] = ratio of KD value for GDP-bound NRAS wild-type protein to KD value for KRAS (SPR)
[8] = ratio of KD value for HRAS wild-type protein to KD value for KRAS (SPR)

Sequence of HRAS wild-type protein (P01112 whole entry): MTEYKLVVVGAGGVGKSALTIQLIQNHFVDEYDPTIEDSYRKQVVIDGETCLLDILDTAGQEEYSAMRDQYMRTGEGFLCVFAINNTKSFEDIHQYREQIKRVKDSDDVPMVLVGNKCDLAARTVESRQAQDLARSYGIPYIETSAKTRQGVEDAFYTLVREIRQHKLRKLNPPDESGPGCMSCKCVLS
Sequence of GDP-bound NRAS wild-type protein (P01111 whole entry): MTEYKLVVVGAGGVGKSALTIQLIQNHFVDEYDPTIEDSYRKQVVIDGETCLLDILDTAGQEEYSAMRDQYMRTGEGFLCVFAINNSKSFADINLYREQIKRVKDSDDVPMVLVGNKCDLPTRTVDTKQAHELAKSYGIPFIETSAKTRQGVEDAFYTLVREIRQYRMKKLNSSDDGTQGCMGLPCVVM

IC50 [2] [nM] | Structure (SMILES) | NRAS /KRAS [1, 3] | HRAS /KRAS (HRAS wild-type protein; [4]) | NRAS /KRAS [1, 5] | HRAS /KRAS (HRAS wild-type protein; [6]) | NRAS /KRAS [1, 7] | HRAS /KRAS (HRAS wild-type protein; [8])
26.6 | CC[C@H](C)[C@@H]1NC(=O)[C@H](CC(C)C)N(C)C(=O)C[C@@H](C(=O)N2CCOCC2)N(C)C(=O)[C@H](C2CCCC2)N(C)C(=O)C2(CCCC2)NC(=O)[C@@H]2CCCN2C(=O)[C@H](CCc2ccc(C(F)(F)F)c(Cl)c2)NC(=O)CN(C)C(=O)[C@H](Cc2ccc(F)cc2)N(C)C(=O)CN(C)C(=O)CN(C)C1=O [PP0212] ([NMeL]I[Sar][Sar][NMePhe(4-F)][Sar][hPhe(3-Cl-4-CF3)]P[Ac5c][NMeGly(cPent)][NMeD]-Morpholide; lactam N-11) | C (A compound having a KD ratio of 0.1 or more and less than 3 is denoted as C) | C (A compound having a KD ratio of 0.1 or more and less than 3 is denoted as C) |  |  |  | 
3.7 | CCO[C@@H]1C[C@H]2C(=O)NC3(CC(F)(F)C3)C(=O)N(C)[C@@H](C3CCCC3)C(=O)N(C)[C@H](C(=O)N3CCOCC3)CC(=O)N(C)[C@@H](CC(C)C)C(=O)N[C@@H]([C@@H](C)CC)C(=O)N(C)CC(=O)N(C)[C@H]3C[C@H]4C[C@H]4CN(C3=O)[C@@H](Cc3ccc(C(F)(F)F)cc3)C(=O)N(C)CC(=O)N[C@@H](CCc3cc(F)c(C(F)(F)F)c(F)c3)C(=O)N2C1 [PP0831] | C (A compound having a KD ratio of 0.1 or more and less than 3 is denoted as C) | C (A compound having a KD ratio of 0.1 or more and less than 3 is denoted as C) |  |  |  | 
83.7 | CC[C@H](C)[C@@H]1NC(=O)[C@H](CC(C)C)N(C)C(=O)C[C@@H](C(=O)N2CCOCC2)N(C)C(=O)[C@H](C2CCCC2)N(C)C(=O)C2(CCC2)NC(=O)[C@@H]2[C@@H](OCC3CCCC3)CCN2C(=O)[C@H](CCc2cc(F)c(C(F)(F)F)c(F)c2)NC(=O)CN(C)C(=O)[C@H](Cc2ccc(C(F)(F)F)cc2)N2CCCC[C@@H](C2=O)N(C)C(=O)CN(C)C1=O [PP1073] | B (a compound having 3 or more and less than 10 is denoted as B) | B (a compound having 3 or more and less than 10 is denoted as B) |  |  |  | 
147 | CC[C@H](C)[C@@H]1NC(=O)[C@H](CC(C)C)N(C)C(=O)C[C@@H](C(=O)N2CCOCC2)N(C)C(=O)[C@H](C2CCCC2)N(C)C(=O)C2(CCCCC2)NC(=O)[C@@H]2CCCN2C(=O)[C@H](CCc2cc(F)c(C(F)(F)F)c(F)c2)NC(=O)CN(C)C(=O)[C@H](Cc2ccc(C(F)(F)F)cc2)N2CCCCC[C@@H](C2=O)N(C)C(=O)CN(C)C1=O [PP0498] |  |  | B (a compound having 3 or more and less than 10 is denoted as B) | B (a compound having 3 or more and less than 10 is denoted as B) |  | 
18 | CC[C@H](C)[C@@H]1NC(=O)[C@H](CC(C)C)N(C)C(=O)C[C@@H](C(=O)N(C)C)N(C)C(=O)[C@H](C2CCCC2)N(C)C(=O)C2(CCCC2)NC(=O)[C@@H]2CC(F)(F)CN2C(=O)[C@H](CCc2cc(F)c(C(F)(F)F)c(F)c2)NC(=O)CN(C)C(=O)[C@H](Cc2ccc(C(F)(F)F)cc2)N2CCCCC[C@@H](C2=O)N(C)C(=O)CN(C)C1=O [PP0465] |  |  | B (a compound having 3 or more and less than 10 is denoted as B) | B (a compound having 3 or more and less than 10 is denoted as B) |  | 
13.5 | CCCN1C(=O)CN(CC)C(=O)CNC(=O)[C@H]([C@@H](C)CC)NC(=O)[C@H](CC(C)C)N(C)C(=O)C[C@@H](C(=O)N2CCOCC2)N(C)C(=O)[C@H](C2CCCC2)N(C)C(=O)C2(CCCC2)NC(=O)[C@@H]2CCCN2C(=O)[C@H](CCc2ccc(C(F)(F)F)c(Cl)c2)NC(=O)CN(C)C(=O)[C@@H]1Cc1ccc(C(F)(F)F)cc1 [PP1968] ([NMeL]IG[NEtG][NPrPhe(4-CF3)][Sar][hPhe(3-Cl-4-CF3)]P[Ac5c][NMeGly(cPent)][NMeD]-Morpholide; lactam N-11) |  |  | C (A compound having a KD ratio of 0.1 or more and less than 3 is denoted as C) | C (A compound having a KD ratio of 0.1 or more and less than 3 is denoted as C) |  | 
4.6 | CCCN1C(=O)[C@@H]2CCN2C(=O)[C@H](C)N(C)C(=O)[C@H]([C@@H](C)CC)NC(=O)[C@H](CC(C)C)N(C)C(=O)C[C@@H](C(=O)N2CCOCC2)N(C)C(=O)[C@H](C2CCCC2)N(C)C(=O)C2(CCC2)NC(=O)[C@@H]2CC(F)(F)CN2C(=O)[C@H](CCc2ccc(C(F)(F)F)c(Cl)c2)NC(=O)CN(C)C(=O)[C@@H]1Cc1ccc(C(F)(F)F)cc1 [PP0208] ([NMeL]I[NMeA][Aze][NPrPhe(4-CF3)][Sar][hPhe(3-Cl-4-CF3)][Pro(4,4-F2)][Ac4c][NMeGly(cPent)][NMeD]-Morpholide; lactam N-11) | C (A compound having a KD ratio of 0.1 or more and less than 3 is denoted as C) | C (A compound having a KD ratio of 0.1 or more and less than 3 is denoted as C) |  |  |  | 
11.1 | CCCOC[C@H]1C(=O)N[C@@H]([C@@H](C)CC)C(=O)N(C)CC(=O)N(C)[C@H]2C/C=C\CCN(C2=O)[C@@H](Cc2ccc(C(F)(F)F)cc2)C(=O)N(C)CC(=O)N[C@@H](CCc2cc(F)c(C(F)(F)F)c(F)c2)C(=O)N2C[C@H](OCC)C[C@H]2C(=O)NC2(CC(C)(C)C2)C(=O)N(C)[C@@H](C2CCCC2)C(=O)N(C)[C@H](C(=O)N(CC)CC)CC(=O)N1C [PP1575] |  |  |  |  | B (a compound having 3 or more and less than 10 is denoted as B) | B (a compound having 3 or more and less than 10 is denoted as B)
20.3 | CC[C@H](C)[C@@H]1NC(=O)[C@H](CC(C)C)N(C)C(=O)C[C@@H](C(=O)N2CCOCC2)N(C)C(=O)[C@H](C2CCCC2)N(C)C(=O)C2(CCCCC2)NC(=O)[C@@H]2CCCN2C(=O)[C@H](CCc2ccc(C(F)(F)F)c(Cl)c2)NC(=O)CN(C)C(=O)[C@H](Cc2ccc(C(F)(F)F)cc2)N(CC)C(=O)CN(C)C(=O)CN(C)C1=O [PP0236] ([NMeL]I[Sar][Sar][NEtPhe(4-CF3)][Sar][hPhe(3-Cl-4-CF3)]P[Ac6c][NMeGly(cPent)][NMeD]-Morpholide; lactam N-11) | B (a compound having 3 or more and less than 10 is denoted as B) | C (A compound having a KD ratio of 0.1 or more and less than 3 is denoted as C) |  |  |  | 
7.5 | CC[C@H](C)[C@@H]1NC(=O)[C@H](CC2CC2)N(C)C(=O)C[C@@H](C(=O)N(C)CC)N(C)C(=O)[C@H](C2CCCC2)N(C)C(=O)C2(CCC2)NC(=O)[C@@H]2CC(F)(F)CN2C(=O)[C@H](CCc2cc(F)c(C(F)(F)F)c(F)c2)NC(=O)CN(C)C(=O)[C@H](Cc2ccc(C(F)(F)F)cc2)N2CC/C=C\C[C@@H](C2=O)N(C)C(=O)CN(C)C1=O [PP1538] |  |  |  |  | A (a compound having 10 or more and less than 20 is denoted as A) | B (a compound having 3 or more and less than 10 is denoted as B)
13.1 | CCC[C@H]1C(=O)N[C@@H]([C@@H](C)CC)C(=O)N(C)CC(=O)N(C)[C@H]2C/C=C\CCN(C2=O)[C@@H](Cc2ccc(C(F)(F)F)cc2)C(=O)N(C)CC(=O)N[C@@H](CCc2ccc(Cl)c(Cl)c2)C(=O)N2C[C@H](OCC)C[C@H]2C(=O)NC2(CC(C)(C)C2)C(=O)N(C)[C@@H](C2CCCC2)C(=O)N(C)[C@H](C(=O)N(C)C)CC(=O)N1C [PP1932] |  |  | A (a compound having 10 or more and less than 20 is denoted as A) | A (a compound having 10 or more and less than 20 is denoted as A) |  | 
10 | CCO[C@@H]1C[C@H]2C(=O)NC3(CCC3)C(=O)N(C)[C@@H](C(CC)CC)C(=O)N(C)[C@H](C(=O)N3CCCC3)CC(=O)N(C)[C@H]3CCC/C=C/c4ccc(cc4)C[C@@H](C(=O)N(C)CC(=O)N[C@@H](CCc4ccc(Cl)c(Cl)c4)C(=O)N2C1)N1CC/C=C\C[C@@H](C1=O)N(C)C(=O)CN(C1CC1)C(=O)[C@H]([C@@H](C)CC)NC3=O [PP3040] | AA (a compound having 20 or more is denoted as AA) | A (a compound having 10 or more and less than 20 is denoted as A) |  |  |  | 
48.2 | CCCN1C(=O)CN(C)C(=O)CN(C)C(=O)[C@H]([C@@H](C)CC)NC(=O)[C@H](CC(C)C)N(C)C(=O)C[C@@H](C(=O)N(C)C)NC(=O)[C@H](C2CCCC2)N(C)C(=O)C2(CCCC2)NC(=O)[C@@H]2CCCN2C(=O)[C@H](CCc2ccc(C(F)(F)F)c(Cl)c2)NC(=O)CN(C)C(=O)[C@@H]1Cc1ccc(C(F)(F)F)cc1 [PP0355] ([NMeL]I[Sar][Sar][NPrPhe(4-CF3)][Sar][hPhe(3-Cl-4-CF3)]P[Ac5c][NMeGly(cPent)]D-NMe2; lactam N-11) | B (a compound having 3 or more and less than 10 is denoted as B) | B (a compound having 3 or more and less than 10 is denoted as B) |  |  |  | 

Structure (SMILES) | IC50 [2] [nM] | NRAS /KRAS [1, 3] | HRAS /KRAS (HRAS wild-type protein; [4]) | NRAS /KRAS [1, 5] | HRAS /KRAS (HRAS wild-type protein; [6]) | NRAS /KRAS [1, 7] | HRAS /KRAS (HRAS wild-type protein; [8])
CCCN1C(=O)CN(C)C(=O)CN(C)C(=O)[C@H]([C@@H](C)CC)NC(=O)[C@H](CC(C)C)N(C)C(=O)C[C@@H](C(=O)N2C3CCC2COC3)N(C)C(=O)[C@H](C2CCCC2)N(C)C(=O)C2(CCCC2)NC(=O)[C@@H]2CCCN2C(=O)[C@H](CCc2ccc(C(F)(F)F)c(Cl)c2)NC(=O)CN(C)C(=O)[C@@H]1Cc1ccc(C(F)(F)F)cc1 [PP0173] ([NMeL]I[Sar][Sar][NPrPhe(4-CF3)][Sar][hPhe(3-Cl-4-CF3)]P[Ac5c][NMeGly(cPent)][NMeD]-{3Oxa8azabicyclo(3.2.1)octane}; lactam N-11) | 11.6 | B (a compound having 3 or more and less than 10 is denoted as B) | C (A compound having a KD ratio of 0.1 or more and less than 3 is denoted as C) |  |  |  | 
